Source: PMC9778984, “5′-Chalcogen-Substituted Nucleoside Pyrophosphate and Phosphate Monoester Analogues: Preparation and Hydrolysis Studies” (International Journal of Molecular Sciences, 2022)

Experiments:
[1] = Hydrolysis of dinucleoside pyrophosphates at 90 °C, analysed by CZE and RP-HPLC; assay type: physicochemical; settings: for half-life of the total disappearance: neutral conditions; for rate constant for the decomposition of the deadenylation (depurination) product / rate constant for the formation of the deadenylation (depurination) product: kinetics of parallel and consecutive reactions
Procedure: Reactions of pyrophosphates dASppA (1a) and 3′,5′-dTSppA (3) were studied at 90 °C. Samples taken from reaction solutions were analysed by two methods: capillary zone electrophores (CZE) and reversed-phase HPLC (RP-HPLC), for detection of polar and neutral reaction components, respectively. […] In general, the reactivity of 1a and 3 is low; the half-lives under neutral conditions are measured in tens of days even at 90 °C. The rate of the total disappearance of thiopyrophosphates 1a and 3 is practically pH-independent between pH 6 to 9. The reactivity increases at a lower pH; under alkaline conditions, the rate-enhancement is more modest.
Kinetic experiments with dinucleoside pyrophosphates 1a,b and 3 have been carried out using methods that have been reported previously, and are only briefly described below. Other experimental methods are described in detail in the Supplementary Materials (Figures S1 and S2, Tables S1 and S2).
Capillary zone electrophoretic (CZE) analysis was carried on an HP ^3DCE or on a Beckman Coulter P/ACE MDQA equipment. A fused silica capillary (57 cm effective length, 75 μm i.d.) was used. The background electrolyte was a 25 mM potassium phosphate buffer (pH 7.2). A voltage of 25–30 kV was applied and the compounds were detected at […] (HP) or 254 nm (Beckman).
RP-HPLC analysis was carried on an Agilent 1100 HPLC equipped with a DAD-detector. A Supelcosil LC-18 column (25 × 0.4 cm, particle size 5 μm) was used to separate reaction components. Eluents were mixtures of acetonitrile (MeCN) (Honeywell, Germany) and acetate buffer (0.05 M, pH 4.3) containing 0.1 M ammonium chloride (Sigma-Aldrich, Seelze, Germany). The gradient program used in routine analysis was as follows: 0–10 min isocratic 5% MeCN, 10–20 min a linear gradient to 33% MeCN, 20–30 min isocratic 33% MeCN, 30–35% a linear gradient to 5% MeCN. Flow rate was 1 mL/ min. UV-active compounds were detected at 260 nm.
Rate constants were calculated by applying the integrated first-order rate law to the disappearance of the starting material. Rate constants for the formation and decompositions of products were calculated by applying the rate law of parallel and consecutive reactions. In the case of 2, the concentration of the starting material and products were determined using calibration curves based on authentic samples. Diphenyl phosphate was used as an internal standard in reactions.

[2] = pKa of the phosphoryl moieties by 31P NMR titration; assay type: physicochemical; settings: from Pβ resonance shift on acidification of aqueous solution; represents a maximum pKa value
Procedure: (§1) In order to further assess the potential for chalcogen-substituted pyrophosphate linkages to enable targeted drug delivery, the pKa values of the phosphoryl moieties were assessed using ^31P NMR titration. […] Similar values were determined for dTChppA (3.2 for 2a; 3.4 for 2b) although maximal shifts of 0.2 ppm were observed and a second inflection at ca. pH 8.5 may indicate that the shifts reflect nucleobase ionisation as significant intramolecular base stacking occurs in AppA and other dinucleoside pyrophosphates. However, the titrations’ inflections represent a maximum pKa value and therefore indicate that these moieties will be fully charged at physiological pH. We therefore briefly compared the cleavage of these pyrophosphates using snake venom monitoring the reactions of NADH, dTSppA (2a) and dTSeppA (2b) by ^31P NMR. Over 95% consumption of the native pyrophosphate substrate was observed consumed within one hour. In contrast, ca. 25% and 20% of the sulfur- and selenium-substituted analogues were cleaved during this timeframe. […] In contrast, digestion of dTSeppA plateaued at ca. 45% which may result from denaturation of the protein following release of 5′-dTSeMP and subsequent spontaneous hydrolysis to the corresponding selenol and its subsequent interaction with the active site zinc dyad and disulfide linkages.

snake venom (SVPDE) = assay: Snake venom (SVPDE) digestion monitored by 31P NMR; assay type: biochemical; settings: for mM consumed (31P NMR): 10 mM substrate, 37 °C, pH 7.5; for substrate consumed (digestion): over the subsequent 14 h; for substrate consumed (cleaved): within one hour
Procedure: as §1
To a solution of 10 mM substrate (NADH/dTSppA (2a)/dTSeppA (2b)) in aqueous buffer (TrisꞏHCl (50 mM, pH 7.5), NaCl (50 mM), 1mM MgCl2ꞏ(H2O)6) was added a solution of snake venom 0.2 mg/µL (10 µL). The reaction mixtures were incubated at 37°C for 30 minutes. Digestion was monitored by 31P NMR. dX(Ch)ppA SV P D digestion […]
mM NADH mM dTSppA mM dTSeppA time/h consumed time/h consumed time/h consumed

[3] = Hydrolysis of nucleotides (phosphorus-chalcogen bond cleavage of monoesters) in aqueous buffer, monitored by 31P NMR; assay type: physicochemical; settings: for ΔH^‡ of phosphorus-chalcogen bond cleavage / ΔS^‡ of phosphorus-chalcogen bond cleavage: neutral pH, Eyring parameters from variable temperature NMR
Procedure: Novel sulfur and selenium substituted 5′,5′-linked dinucleoside pyrophate analogues were prepared in a vibration ball mill from the corresponding persilylated monophosphate. The chemical hydrolysis of pyrophosphorochalcogenolate-linked dimers was studied over a wide pH-range. […] The chemical stability of the precursor phosphorochalcogenolate monoesters was also investigated. […] The rate of dephosphorylation was dependent upon both the nature of the chalcogen and the pH. The integrity of the P-S bond in the corresponding phosphorothiolate was maintained at high pH but rapidly degraded at pH 3. In contrast, P-Se bond cleavage of the phosphoroselenolate monoester was rapid and the rate increased with alkalinity. The results obtained in kinetic experiments provide insight on the reactivity of the novel pyrophosphates studied as well as of other types of thiosubstituted biological phosphates.
Evidence for a dissociative transition state can be seen in the Eyring parameters derived from variable temperature NMR analysis of the phosphorus-chalcogen bond cleavage kinetics at 29 8K, 308 K and 318 K under neutral pH conditions. Thus, positive ΔS^‡ values of 79 and 35 J mol^−1 K^−1 were determined for 5′-dTSMP (4a) and 5′-dTSeMP (4b), respectively.

[4] = as above; assay type: physicochemical

Question: What does the source list for `Nc1ncnc2c1ncn2[C@@H]1O[C@H](COP(=O)(O)OP(=O)(O)SC[C@H]2O[C@@H](n3cnc4c(N)ncnc43)[C@H](O)[C@@H]2O)[C@@H](O)[C@H]1O` [1a, 5′-Thioadenosine 5′-Pyrophosphate (P′→5′) adenosine]?
Answer: half-life of the total disappearance ([1]; 90 °C): tens of days; rate constant of the total disappearance ([1]; pH 2, 90 °C): 9.3e-05 s⁻¹; phosphate hydrolysis rate constant relative to that reported for Ap2A (1c) ([1]; pH 2, 90 °C, same conditions, Ap2A value from ref 33): six times larger; rate constant of phosphate hydrolysis ([1]; pH 2, 90 °C, total disappearance divided, assuming the two deadenylation routes are equally fast): 5.5e-05 s⁻¹; pKa [2]: 3

Question: What does the source list for `Nc1ncnc2c1ncn2[C@@H]1O[C@H](COP(=O)(O)OP(=O)(O)[Se]C[C@H]2O[C@@H](n3cnc4c(N)ncnc43)[C@H](O)[C@@H]2O)[C@@H](O)[C@H]1O` [1b, 5′-deoxy-5′-selenoadenosine 5′-pyrophosphate (P′ →5′) adenosine]?
Answer: rate constant of the total disappearance ([1]; pH 2, 90 °C): (1.55 ± 0.04) × 10^−4 s^−1; rate constants from the initial linear plot relative to those obtained for 1a ([1]; pH above acidic, where the reaction is not first-order, 90 °C, difference largest under neutral conditions): 5 to 20 times; pKa [2]: 3.3

Question: With `Cc1cn([C@H]2C[C@H](O)[C@@H](CSP(=O)(O)OP(=O)(O)OC[C@H]3O[C@@H](n4cnc5c(N)ncnc54)[C@H](O)[C@@H]3O)O2)c(=O)[nH]c1=O` [2a, 5'-thiothymidine 5'-pyrophosphate (P' →5') adenosine] as the compound, how does the pKa [2] read?
Answer: 3.2

Question: What about the “mM consumed (31P NMR)” value (snake venom (SVPDE); time 1 h) of the same compound?
Answer: 2.57 mM

Question: And the “mM consumed (31P NMR)” value (snake venom (SVPDE); time 2 h)?
Answer: 4.17 mM

Question: What about the “mM consumed (31P NMR)” value (snake venom (SVPDE); time 4 h) of the same compound?
Answer: 7.12 mM

Question: What about the “mM consumed (31P NMR)” value (snake venom (SVPDE); time 15 h) of the same compound?
Answer: 10 mM

Question: What about the “substrate consumed (digestion)” value (snake venom (SVPDE)) of the same compound?
Answer: complete consumption

Question: And the “substrate consumed (cleaved)” value (snake venom (SVPDE))?
Answer: ca. 25%

Question: For `Cc1cn([C@H]2C[C@H](O)[C@@H](C[Se]P(=O)(O)OP(=O)(O)OC[C@H]3O[C@@H](n4cnc5c(N)ncnc54)[C@H](O)[C@@H]3O)O2)c(=O)[nH]c1=O` [2b, 5′-deoxy-5′-selenothymidine 5′-pyrophosphate (P′ →5′) adenosine], which pKa [2] is on record?
Answer: 3.4

Question: And the “mM consumed (31P NMR)” value (snake venom (SVPDE); time 1 h)?
Answer: 2.13 mM

Question: What about the “mM consumed (31P NMR)” value (snake venom (SVPDE); time 2 h) of the same compound?
Answer: 3.19 mM

Question: What about the “mM consumed (31P NMR)” value (snake venom (SVPDE); time 3 h) of the same compound?
Answer: 3.98 mM

Question: What about the “mM consumed (31P NMR)” value (snake venom (SVPDE); time 5 h) of the same compound?
Answer: 4.41 mM

Question: What about the “mM consumed (31P NMR)” value (snake venom (SVPDE); time 7 h) of the same compound?
Answer: 4.45 mM

Question: What about the “mM consumed (31P NMR)” value (snake venom (SVPDE); time 9 h) of the same compound?
Answer: 4.48 mM

Question: And the “mM consumed (31P NMR)” value (snake venom (SVPDE); time 15 h)?
Answer: 4.61 mM

Question: And the “substrate consumed (digestion)” value (snake venom (SVPDE))?
Answer: ca. 45%

Question: What about the “substrate consumed (cleaved)” value (snake venom (SVPDE)) of the same compound?
Answer: ~20%

Question: For `Cc1cn([C@H]2C[C@H](O)[C@@H](CSP(=O)(O)O)O2)c(=O)[nH]c1=O` [4a], which time for hydrolysis ([3]; acidic conditions, 25 °C) is on record?
Answer: within hours

Question: And the “ΔH^‡ of phosphorus-chalcogen bond cleavage” value [3]?
Answer: 30.23 kcal/mol

Question: What about the “ΔS^‡ of phosphorus-chalcogen bond cleavage” value [3] of the same compound?
Answer: 79 J mol^−1 K^−1

Question: What about the “k (rate constant for the hydrolysis)” value ([3]; pH 3, 298 K) of the same compound?
Answer: 152 10^−6 s^−1

Question: What about the “reactivity difference between 5′-dTSMP (4a) and 5′-TMP (4c)” value ([3]; pH 3, estimated on the basis of Table 1) of the same compound?
Answer: approximately 700,000 fold

Question: And the “k (rate constant for the hydrolysis)” value ([3]; pH 7, 298 K)?
Answer: 5.19 10^−6 s^−1

Question: What about the “k (rate constant for the hydrolysis)” value ([3]; pH 7, 308 K) of the same compound?
Answer: 17.1 10^−6 s^−1

Question: What about the “k (rate constant for the hydrolysis)” value ([3]; pH 7, 318 K) of the same compound?
Answer: 58.4 10^−6 s^−1

Question: What about the “k (rate constant for the hydrolysis)” value ([3]; pH 11, 298 K) of the same compound?
Answer: 0.34 10^−6 s^−1

Question: Which results are given for `Cc1cn([C@H]2C[C@H](O)[C@@H](C[Se]P(=O)(O)O)O2)c(=O)[nH]c1=O` [4b]?
Answer: k (rate constant for the hydrolysis) ([4]; pH 7, 303 K): 75.1 10^−6 s^−1; k (rate constant for the hydrolysis) ([4]; pH 7, 313 K): 297 10^−6 s^−1; ΔH^‡ of phosphorus-chalcogen bond cleavage [3]: 26.43 kcal/mol; ΔS^‡ of phosphorus-chalcogen bond cleavage [3]: 35 J mol^−1 K^−1; k (rate constant for the hydrolysis) ([3]; pH 3, 298 K): 53.1 10^−6 s^−1; k (rate constant for the hydrolysis) ([3]; pH 7, 298 K): 16.8 10^−6 s^−1; k (rate constant for the hydrolysis) ([3]; pH 11, 298 K): 14.4 10^−6 s^−1

Question: Which “k (rate constant for the hydrolysis)” value ([3]; pH 3, 363 K) does the source give for `Cc1cn([C@H]2C[C@H](O)[C@@H](COP(=O)(O)O)O2)c(=O)[nH]c1=O` [4c, 5′-TMP, reference compound] here?
Answer: 2.60 10^−6 s^−1

Question: Which “mM consumed (31P NMR)” value (snake venom (SVPDE); time 1 h) does the source give for `NC(=O)C1=CN([C@@H]2O[C@H](COP(=O)(O)OP(=O)(O)OC[C@H]3O[C@@H](n4cnc5c(N)ncnc54)[C@H](O)[C@@H]3O)[C@@H](O)[C@H]2O)C=CC1` [NADH, reference compound] here?
Answer: 9.62 mM

Question: And the “mM consumed (31P NMR)” value (snake venom (SVPDE); time 2 h)?
Answer: 10 mM

Question: And the “substrate consumed (cleaved)” value (snake venom (SVPDE))?
Answer: Over 95%

Question: What does the source list for `Cc1cn([C@H]2C[C@H](S[P@](=O)(O)O[P@](=O)(O)OC[C@H]3O[C@@H](n4cnc5c(N)ncnc54)[C@H](O)[C@@H]3O)[C@@H](CO)O2)c(=O)[nH]c1=O` [compound 3]?
Answer: half-life of the total disappearance ([1]; 90 °C): tens of days; rate constant for dethyminylation ([1]; neutral pH, 90 °C, non-linear regression on thymine formation, rather approximate): (2.2 ± 0.2) × 10^−7 s^−1

Question: For `Nc1ncnc2c1ncn2[C@@H]1O[C@H](CS[P@](=O)(O)O[P@](=O)(O)OC[C@@H](O)[C@@H](O)[C@@H](O)C=O)[C@@H](O)[C@H]1O` [compound 13], which “rate constant for the decomposition of the deadenylation (depurination) product” value ([1]; pH 2, 90 °C) is on record?
Answer: 3.1e-05 s⁻¹

Question: And the “rate constant for the formation of the deadenylation (depurination) product” value ([1]; pH 2, 90 °C)?
Answer: 1.9e-05 s⁻¹

Question: Which “rate constant for the decomposition of the deadenylation (depurination) product” value ([1]; pH 2, 90 °C) does the source give for `Cc1cn([C@H]2C[C@H](S[P@](=O)(O)O[P@](=O)(O)OC[C@@H](O)[C@@H](O)[C@@H](O)C=O)[C@@H](CO)O2)c(=O)[nH]c1=O` [compound 18] here?
Answer: 2e-05 s⁻¹

Question: What about the “rate constant for the formation of the deadenylation (depurination) product” value ([1]; pH 2, 90 °C) of the same compound?
Answer: 2.3e-05 s⁻¹
